From patent US5705498A, “Piperidine derivatives as 5-HT4 receptor antagonists” (SmithKline Beecham plc., priority 1992, dated 1998) come the findings set out here.

For the test, the target named is T1, 5-HT4 receptor (Cavia porcellus, UniProt O70528).
T1 construct: Longitudinal muscle-myenteric plexus preparations, approximately 3 cm long, are obtained from the distal colon region; from tissue; host or cells: guinea-pig distal colon, longitudinal muscle-myenteric plexus preparation
The test can be described thus: Guinea pig colon longitudinal muscle-myenteric plexus, antagonism of 5-HT-evoked contraction. As to conditions: guinea-pig distal colon; contraction evoked by 5-HT; methiothepin 10^-7 M and granisetron 10^-6 M present; read-out: pIC50 (-log concentration of antagonist which reduces the contraction by 50%) (converted). The procedure:
Male guinea-pigs, weighing 250-400 g are used. Longitudinal muscle-myenteric plexus preparations, approximately 3 cm long, are obtained from the distal colon region. These are suspended under a 0.5 g load in isolated tissue baths containing Krebs solution bubbled with 5% CO2 in O2 and maintained at 37° C. In all experiments, the Krebs solution also contains methiothepin 10^-7 M and granisetron 10^-6 M to block effects at 5-HT1, 5-HT2 and 5-HT3 receptors.
After construction of a simple concentration-response curve with 5-HT, using 30 s contact times and a 15 min dosing cycle, a concentration of 5-HT is selected so as to obtain a contraction of the muscle approximately 40-70% maximum(10^-9 M approx). The tissue is then alternately dosed every 15 min with this concentration of 5-HT and then with an approximately equi-effective concentration of the nicotine receptor stimulant, dimethylphenylpiperazinium (DMPP). After obtaining consistent responses to both 5-HT and DMPP, increasing concentrations of a putative 5-HT4 receptor antagonist are then added to the bathing solution. The effects of this compound are then determined as a percentage reduction of the contractions evoked by 5-HT or by DMPP. […] A compound which reduces the response to 5-HT but not to DMPP is believed to act as a 5-HT4 receptor antagonist.

The structures appear in SMILES notation. A value given as a limit tells only on which side of the number the result lay.

T1 sequence (O70528 whole entry): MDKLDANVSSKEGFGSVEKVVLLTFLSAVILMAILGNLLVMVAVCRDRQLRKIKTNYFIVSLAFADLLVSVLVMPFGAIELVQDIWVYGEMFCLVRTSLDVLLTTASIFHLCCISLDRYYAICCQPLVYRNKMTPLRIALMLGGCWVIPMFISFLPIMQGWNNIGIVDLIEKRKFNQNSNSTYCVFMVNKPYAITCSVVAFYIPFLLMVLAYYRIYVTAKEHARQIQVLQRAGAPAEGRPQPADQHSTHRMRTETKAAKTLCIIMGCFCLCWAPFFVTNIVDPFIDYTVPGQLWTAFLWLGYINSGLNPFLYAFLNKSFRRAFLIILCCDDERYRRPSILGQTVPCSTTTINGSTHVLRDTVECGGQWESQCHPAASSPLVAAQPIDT

On to `Nc1c(Cl)cc(C(=O)OCC2CCN(Cc3cccnc3)CC2)c2c1OCCO2` [Example E1, 5-(1-(3-Pyridylmethyl)-4-piperidinyl)methyl-8-amino-7-chloro-1,4-benzodioxancarboxylate], for which the IC50 is < 1 nM.
